Test results: US20240101570A1 (AMGEN INC., priority 2020, published 2024)

How the values were obtained:
HCT116 WT cells = assay: HCT116 WT cell proliferation / viability (CellTiter-Glo, 6 days); format: cell-based; details: Homo sapiens, HCT-116, 144 h, HCT116 WT cells, 6 days, CellTiter-Glo; read-out: HCT-116 WT IC50
How it was run: (§1)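 CellTiter-Glo luminescence, 6-day exposure, RPMI 1640 + 10% FBS. Dosing: 1:3 series (8-9 pts, top 1 or 10 μM) or 1:2 series (22 pts, top 10 or 50 μM), DMSO control. IC50 = 50% of control via curve fit.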

HCT116 MTAP null cells = assay: HCT116 MTAP null cell proliferation / viability (CellTiter-Glo, 6 days); format: cell-based; details: HCT116-MTAP null, 144 h, HCT116 MTAP null cells, 6 days, CellTiter-Glo; read-out: HCT-116 MTAP null IC50
How it was run: as §1

Compound | IC50 (HCT116 WT cells) [µM] | IC50 (HCT116 MTAP null cells) [µM]
C[C@@H]1OCc2c1c(N)nc1cnc(C(=O)N(Cc3ccc(C(F)(F)F)cn3)C34CC(C3)C4)cc21 [Example 309, (3S)-4-amino-N-(bicyclo[1.1.1]pentan-1-yl)-3-methyl-N-((5-(trifluoromethyl)-2-pyridinyl)methyl)-1,3-dihydrofuro[3,4-c][1,7]naphthyridine-8-carboxamide] | > 10 | 4
CC(C)N(Cc1ccc(C(F)(F)F)cn1)C(=O)c1cc2c3c(c(N)nc2cn1)[C@@H](C)OC3 [Example 310, (3R)-4-amino-3-methyl-N-(2-propanyl)-N-((5-(trifluoromethyl)-2-pyridinyl)methyl)-1,3-dihydrofuro[3,4-c][1,7]naphthyridine-8-carboxamide] | 4.05 | 0.071
C[C@H]1OCc2c1c(N)nc1cnc(C(=O)N(Cc3ccc(C(F)(F)F)cn3)C34CC(C3)C4)cc21 [Example 311, (3R)-4-amino-N-(bicyclo[1.1.1]pentan-1-yl)-3-methyl-N-((5-(trifluoromethyl)-2-pyridinyl)methyl)-1,3-dihydrofuro[3,4-c][1,7]naphthyridine-8-carboxamide] | 2.21 | 0.056
C[C@H]1OCc2c1c(N)nc1cnc(C(=O)N(C)Cc3ccc(C#N)cn3)cc21 [Example 312, (3R)-4-amino-N-((5-cyano-2-pyridinyl)methyl)-N,3-dimethyl-1,3-dihydrofuro[3,4-c][1,7]naphthyridine-8-carboxamide] | > 10 | 1.09
CC(C)N(Cc1ccc(C(F)(F)F)nn1)C(=O)c1cc2c3c(c(N)nc2cn1)[C@@H](C)OC3 [Example 313, (3R)-4-amino-3-methyl-N-(2-propanyl)-N-((6-(trifluoromethyl)-3-pyridazinyl)methyl)-1,3-dihydrofuro [3,4-c][1,7]naphthyridine-8-carboxamide] | 3.68 | 0.2
C[C@H]1OCc2c1c(N)nc1cnc(C(=O)N(Cc3ccc(C(F)(F)F)cn3)C3CC3)cc21 [Example 315, (3R)-4-amino-N-cyclopropyl-3-methyl-N-((5-(trifluoromethyl)-2-pyridinyl)methyl)-1,3-dihydrofuro[3,4-c][1,7]naphthyridine-8-carboxamide] | 11.1 | 0.137
C[C@H]1OCc2c1c(N)nc1cnc(C(=O)N(Cc3ccc(C#N)cn3)C3CC3)cc21 [Example 316, (3R)-4-amino-N-((5-cyano-2-pyridinyl)methyl)-N-cyclopropyl-3-methyl-1,3-dihydrofuro[3,4-c][1,7]naphthyridine-8-carboxamide] | 23.7 | 0.57
C[C@H]1OCc2c1c(N)nc1cnc(C(=O)N(C)Cc3ccc(C(F)(F)F)nn3)cc21 [Example 317, (3R)-4-amino-N,3-dimethyl-N-((6-(trifluoromethyl)-3-pyridazinyl)methyl)-1,3-dihydrofuro [3,4-c][1,7]naphthyridine-8-carboxamide] | 49.7 | 0.432
C[C@@H]1OCc2c1c(N)nc1cnc(C(=O)N(Cc3ccc(C(F)(F)F)cn3)C3CC3)cc21 [Example 318, (3S)-4-amino-N-cyclopropyl-3-methyl-N-((5-(trifluoromethyl)-2-pyridinyl)methyl)-1,3-dihydrofuro[3,4-c][1,7]naphthyridine-8-carboxamide] | 36.3 | 4.93
C[C@@H]1OCc2c1c(N)nc1cnc(C(=O)N(C)Cc3ccc(C(F)(F)F)nn3)cc21 [Example 319, (3S)-4-amino-N,3-dimethyl-N-((6-(trifluoromethyl)-3-pyridazinyl)methyl)-1,3-dihydrofuro[3,4-c][1,7]naphthyridine-8-carboxamide] | > 50 | 27.7
C[C@H]1OCc2c1c(N)nc1cnc(C(=O)N(Cc3ccc(C(F)(F)F)cn3)CC(F)(F)F)cc21 [Example 320, (3R)-4-amino-3-methyl-N-(2,2,2-trifluoroethyl)-N-((5-(trifluoromethyl)-2-pyridinyl)methyl)-1,3-dihydrofuro [3,4-c][1,7]naphthyridine-8-carboxamide] | 15.8 | 0.303
Nc1nc2ncc(C(=O)N(Cc3ccc(C(F)(F)F)cn3)CC3CC3)cc2c2c1COC2 [Example 321, 4-amino-N-(cyclopropylmethyl)-N-((5-(trifluoromethyl)-2-pyridinyl)methyl)-1,3-dihydrofuro[3,4-c][1,8]naphthyridine-8-carboxamide] | 3.79 | 0.226
COC[C@@H](C)N(Cc1ccc(C(F)(F)F)cn1)C(=O)c1cnc2nc(N)c3c(c2c1)COC3 [Example 322, 4-amino-N-((2R)-1-methoxy-2-propanyl)-N-((5-(trifluoromethyl)-2-pyridinyl)methyl)-1,3-dihydrofuro[3,4-c][1,8]naphthyridine-8-carboxamide] | 1.03 | 0.081
CN(Cc1ccc(C2CC2)cn1)C(=O)c1ccc2nc(N)c3c(c2c1)COC3 [Example 323, 4-amino-N-((5-cyclopropyl-2-pyridinyl)methyl)-N-methyl-1,3-dihydrofuro[3,4-c]quinoline-8-carboxamide] | 15 | 0.358
CN(Cc1ccc(C#N)cn1)C(=O)c1ccc2nc(N)c3c(c2c1)COC3 [Example 324, 4-amino-N-((5-cyano-2-pyridinyl)methyl)-N-methyl-1,3-dihydrofuro[3,4-c]quinoline-8-carboxamide] | 51.6 | 0.908
N#Cc1ccc(CN(CC2CC2)C(=O)c2ccc3nc(N)c4c(c3c2)COC4)nc1 [Example 325, 4-amino-N-((5-cyano-2-pyridinyl)methyl)-N-(cyclopropylmethyl)-1,3-dihydrofuro[3,4-c]quinoline-8-carboxamide] | 2.28 | 0.073
C[C@H]1OCc2c1c(N)nc1ccc(C(=O)N(Cc3ccc(Br)nn3)CC3CC3)cc21 [Example 326, (3R)-4-amino-N-((6-bromo-3-pyridazinyl)methyl)-N-(cyclopropylmethyl)-3-methyl-1,3-dihydrofuro[3,4-c]quinoline-8-carboxamide] | 1.28 | 0.019
CN(Cc1ccc(Br)nn1)C(=O)c1ccc2nc(N)c3c(c2c1)COC3 [Example 327, 4-amino-N-((6-bromo-3-pyridazinyl)methyl)-N-methyl-1,3-dihydrofuro[3,4-c]quinoline-8-carboxamide] | > 10 | 0.811
C[C@H]1OCc2c1c(N)nc1ccc(C(=O)N(C)Cc3ccc(Br)cn3)cc21 [Example 328, (3R)-4-amino-N-((5-bromo-2-pyridinyl)methyl)-N,3-dimethyl-1,3-dihydrofuro[3,4-c]quinoline-8-carboxamide] | 19.4 | 0.129
C[C@H](c1ncccn1)N(Cc1ccc(C2CC2)nn1)C(=O)c1ccc2nc(N)c3c(c2c1)CO[C@@H]3C [Example 329, (3R)-4-amino-N-((6-cyclopropyl-3-pyridazinyl)methyl)-3-methyl-N-((1R)-1-(2-pyrimidinyl)ethyl)-1,3-dihydrofuro[3,4-c]quinoline-8-carboxamide] | 0.16 | 0.022
CN(Cc1ccc(Br)cn1)C(=O)c1ccc2nc(N)c3c(c2c1)COC3 [Example 330, 4-amino-N-((5-bromo-2-pyridinyl)methyl)-N-methyl-1,3-dihydrofuro[3,4-c]quinoline-8-carboxamide] | > 10 | 0.204
C[C@H]1OCc2c1c(N)nc1ccc(C(=O)N(Cc3ccc(C#N)cn3)CC3CC3)cc21 [Example 331, (3R)-4-amino-N-((5-cyano-2-pyridinyl)methyl)-N-(cyclopropylmethyl)-3-methyl-1,3-dihydrofuro[3,4-c]quinoline-8-carboxamide] | 2.3 | 0.028
CC(C)N(Cc1ccc(Br)nn1)C(=O)c1ccc2nc(N)c3c(c2c1)CO[C@@H]3C [Example 332, (3R)-4-amino-N-((6-bromo-3-pyridazinyl)methyl)-3-methyl-N-(2-propanyl)-1,3-dihydrofuro[3,4-c]quinoline-8-carboxamide] | 6.09 | 0.12
C[C@H]1OCc2c1c(N)nc1ccc(C(=O)N(Cc3ccc(C(F)(F)F)nn3)CC3CC3)cc21 [Example 333, (3R)-4-amino-N-(cyclopropylmethyl)-3-methyl-N-((6-(trifluoromethyl)-3-pyridazinyl)methyl)-1,3-dihydrofuro[3,4-c]quinoline-8-carboxamide] | 1.41 | 0.024
C[C@H]1OCc2c1c(N)nc1ccc(C(=O)N(Cc3ccc(C(F)(F)F)cn3)CC3CC3)cc21 [Example 334, (3R)-4-amino-N-(cyclopropylmethyl)-3-methyl-N-((5-(trifluoromethyl)-2-pyridinyl)methyl)-1,3-dihydrofuro[3,4-c]quinoline-8-carboxamide] | 0.509 | 0.01
Nc1nc2ccc(C(=O)N(Cc3ccc(C(F)(F)F)nn3)CC3CC3)cc2c2c1COC2 [Example 336, 4-amino-N-(cyclopropylmethyl)-N-((6-(trifluoromethyl)-3-pyridazinyl)methyl)-1,3-dihydrofuro[3,4-c]quinoline-8-carboxamide] | 2.57 | 0.087
CC1(CN(Cc2ccc(C(F)(F)F)cn2)C(=O)c2ccc3nc(N)c4c(c3c2)COC4)CC1 [Example 337, 4-amino-N-((1-methylcyclopropyl)methyl)-N-((5-(trifluoromethyl)-2-pyridinyl)methyl)-1,3-dihydrofuro[3,4-c]quinoline-8-carboxamide] | 0.714 | 0.033
C[C@H]1OCc2c1c(N)nc1ccc(C(=O)N(Cc3ccc(C(F)(F)F)cn3)CC(C)(C)C)cc21 [Example 338, (3R)-4-amino-N-(2,2-dimethylpropyl)-3-methyl-N-((5-(trifluoromethyl)-2-pyridinyl)methyl)-1,3-dihydrofuro[3,4-c]quinoline-8-carboxamide] | 5.83 | 0.406
